Reference: patent US7598245B2 (Vertex Pharmaceuticals Incorporated, priority 2003, dated 2009)
pKi: −log10 of the molar value.

Tests used:
Type in all cases: biochemical
Aurora-2 = target: T1, Aurora-2 (Homo sapiens, UniProt O14965); assay: Inhibition of AUR-2, coupled enzyme assay
T1 construct: addition of 10 μL of Aurora-2 stock solution to give a final concentration of 70 nM
T1 sequence (O14965 1-403): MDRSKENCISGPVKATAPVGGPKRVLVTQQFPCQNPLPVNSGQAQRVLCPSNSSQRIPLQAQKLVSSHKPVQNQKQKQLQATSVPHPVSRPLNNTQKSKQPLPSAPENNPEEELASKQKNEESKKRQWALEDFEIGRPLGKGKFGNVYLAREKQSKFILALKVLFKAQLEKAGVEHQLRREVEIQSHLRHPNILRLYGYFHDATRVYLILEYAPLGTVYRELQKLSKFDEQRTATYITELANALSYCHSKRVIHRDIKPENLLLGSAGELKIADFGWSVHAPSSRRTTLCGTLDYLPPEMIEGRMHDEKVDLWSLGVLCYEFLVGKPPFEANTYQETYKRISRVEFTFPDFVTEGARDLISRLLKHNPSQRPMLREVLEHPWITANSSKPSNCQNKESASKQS
Experimental: Compounds are screened in the following manner for their ability to inhibit Aurora-2 using a standard coupled enzyme assay (Fox et al (1998) Protein Sci 7, 2249). To an assay stock buffer solution containing 0.1M HEPES 7.5, 10 mM MgCl2, 1 mM DTT, 25 mM NaCl, 2.5 mM phosphoenolpyruvate, […], 30 mg/ml pyruvate kinase, 10 mg/ml lactate dehydrogenase, 40 mM ATP, and 800 μM peptide (LRRASLG, American Peptide, Sunnyvale, Calif.) is added a DMSO solution of a compound of the present invention to a final concentration of 30 μM. The resulting mixture is incubated at 30° C. for 10 min. The reaction was initiated by the addition of 10 μL of Aurora-2 stock solution to give a final concentration of 70 nM in the assay. The rates of reaction are obtained by monitoring absorbance at 340 nm over a 5 minute read time at 30° C. using a BioRad Ultramark plate reader (Hercules, Calif.). The Ki values are determined from the rate data as a function of inhibitor concentration.

c-KIT = target: T2, c-KIT (Homo sapiens, UniProt P10721); assay: Inhibition of c-KIT, radiometric filter-binding assay; conditions: 700 μM ATP, pE4Y substrate
T2 construct: 0.02% BSA and 25 nM c-KIT
T2 sequence (P10721 26-976): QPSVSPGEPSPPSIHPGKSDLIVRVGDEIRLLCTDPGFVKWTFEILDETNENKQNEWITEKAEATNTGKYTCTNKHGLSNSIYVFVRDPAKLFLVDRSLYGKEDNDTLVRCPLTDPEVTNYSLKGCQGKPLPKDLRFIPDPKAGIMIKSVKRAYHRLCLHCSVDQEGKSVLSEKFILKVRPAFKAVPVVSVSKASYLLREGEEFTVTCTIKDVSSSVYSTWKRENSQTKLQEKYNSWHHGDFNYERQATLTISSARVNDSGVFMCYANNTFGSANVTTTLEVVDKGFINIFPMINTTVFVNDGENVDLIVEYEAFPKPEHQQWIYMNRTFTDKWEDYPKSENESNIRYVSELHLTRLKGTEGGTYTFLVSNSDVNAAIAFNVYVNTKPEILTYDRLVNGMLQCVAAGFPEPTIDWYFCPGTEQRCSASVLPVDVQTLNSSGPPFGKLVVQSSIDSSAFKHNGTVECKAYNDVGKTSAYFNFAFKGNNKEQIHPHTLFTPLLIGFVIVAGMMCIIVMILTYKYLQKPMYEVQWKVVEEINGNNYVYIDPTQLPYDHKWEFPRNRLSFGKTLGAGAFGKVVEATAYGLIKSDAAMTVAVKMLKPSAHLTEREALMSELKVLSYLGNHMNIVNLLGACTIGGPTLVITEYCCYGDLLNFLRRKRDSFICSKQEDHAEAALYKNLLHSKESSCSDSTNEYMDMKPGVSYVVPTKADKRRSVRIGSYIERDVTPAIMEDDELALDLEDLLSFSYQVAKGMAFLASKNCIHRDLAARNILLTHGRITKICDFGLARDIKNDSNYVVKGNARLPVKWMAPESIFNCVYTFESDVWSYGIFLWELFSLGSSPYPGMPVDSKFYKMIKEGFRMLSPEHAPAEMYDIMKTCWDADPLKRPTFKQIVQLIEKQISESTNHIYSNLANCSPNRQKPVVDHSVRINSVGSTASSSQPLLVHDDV
Experimental: Compounds are screened for their ability to inhibit c-KIT activity using a radiometric filter-binding assay. This assay monitors the ^33P incorporation into a substrate poly(Glu, Tyr) 4:1 (pE4Y). Reactions are carried out in a solution containing 100 mM HEPES (pH 7.5), 10 mM MgCl2, 25 mM NaCl, 1 mM DTT, 0.01% BSA and 2.5% DMSO. Final substrate concentrations in the assay were 700 μM ATP and 0.5 mg/mL pE4Y (both from Sigma Chemicals, St Louis, Mo.). The final concentration of compounds is generally between 0.01 and 5 μM. Typically, a 12-point titration is conducted by preparing serial dilutions from 10 mM DMSO stock of test compound. Reactions were carried out at room temperature.
Two assay solutions are prepared. Solution 1 contains 100 mM HEPES (pH 7.5), 10 mM MgCl2, 25 mM NaCl, 1 mg/ml pE4Y and 1.4 mM ATP (containing 0.5 μCi of [γ-^33P]ATP for each reaction). Solution 2 contains 100 mM HEPES (pH 7.5), 10 mM MgCl2, 25 mM NaCl, 2 mM DTT, 0.02% BSA and 25 nM c-KIT. The assay is run on a 96 well plate by mixing 33 μL of Solution1 and 1.65 μL of the test compounds. The reaction is initiated with 33 μL of Solution2. After incubation for 20 minutes at room temperature, the reaction was stopped with 50 μL of 10% TCA containing 0.2 mM of ATP. All of the reaction volume is then transferred to a filter plate and washed with 5% TCA by a Harvester9600 from TOMTEC (Hamden, Conn.). The amount of ^33P incorporation into pE4y is analyzed by a Packard TopCount Microplate Scintillation Counter (Meriden, Conn.). The data is fitted using Prism software to get an IC50 or Ki.

KDR = KDR (Homo sapiens, UniProt P35968); assay: Inhibition of KDR, coupled enzyme assay; conditions: 300 μM ATP, 37° C.
KDR, sequence (P35968 20-1356): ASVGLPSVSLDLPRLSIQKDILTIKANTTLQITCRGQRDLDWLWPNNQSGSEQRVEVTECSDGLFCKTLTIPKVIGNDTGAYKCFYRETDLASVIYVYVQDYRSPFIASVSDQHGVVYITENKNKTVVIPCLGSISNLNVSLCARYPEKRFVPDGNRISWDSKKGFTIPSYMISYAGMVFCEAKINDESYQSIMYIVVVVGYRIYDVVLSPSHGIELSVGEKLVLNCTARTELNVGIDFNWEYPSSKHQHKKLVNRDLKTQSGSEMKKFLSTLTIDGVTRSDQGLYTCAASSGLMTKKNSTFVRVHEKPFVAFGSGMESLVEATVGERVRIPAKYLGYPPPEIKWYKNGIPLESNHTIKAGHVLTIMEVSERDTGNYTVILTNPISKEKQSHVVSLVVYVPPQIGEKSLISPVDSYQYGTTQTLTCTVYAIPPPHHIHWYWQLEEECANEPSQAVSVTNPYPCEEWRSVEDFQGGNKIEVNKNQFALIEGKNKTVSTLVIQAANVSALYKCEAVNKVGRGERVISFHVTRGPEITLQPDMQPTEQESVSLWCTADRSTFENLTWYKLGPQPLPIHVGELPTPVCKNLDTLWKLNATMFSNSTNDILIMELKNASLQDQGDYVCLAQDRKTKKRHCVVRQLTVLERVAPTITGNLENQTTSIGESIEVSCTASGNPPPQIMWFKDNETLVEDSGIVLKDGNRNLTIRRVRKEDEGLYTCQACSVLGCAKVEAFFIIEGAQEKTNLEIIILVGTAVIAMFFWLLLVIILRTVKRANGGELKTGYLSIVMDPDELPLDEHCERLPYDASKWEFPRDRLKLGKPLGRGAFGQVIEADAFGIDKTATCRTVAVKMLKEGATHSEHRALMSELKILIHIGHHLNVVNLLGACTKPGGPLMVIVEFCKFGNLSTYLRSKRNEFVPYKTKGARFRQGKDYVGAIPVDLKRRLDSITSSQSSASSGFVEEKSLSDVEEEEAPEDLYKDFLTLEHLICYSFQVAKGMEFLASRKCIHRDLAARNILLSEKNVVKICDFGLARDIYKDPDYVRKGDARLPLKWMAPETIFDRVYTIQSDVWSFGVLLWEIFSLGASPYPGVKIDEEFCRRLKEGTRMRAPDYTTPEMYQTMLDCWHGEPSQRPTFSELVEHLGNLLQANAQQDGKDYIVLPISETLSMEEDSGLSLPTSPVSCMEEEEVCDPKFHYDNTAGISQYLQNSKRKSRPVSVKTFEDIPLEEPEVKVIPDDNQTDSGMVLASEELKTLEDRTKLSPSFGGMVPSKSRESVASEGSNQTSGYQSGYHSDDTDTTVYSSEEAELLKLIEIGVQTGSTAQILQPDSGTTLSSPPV
Experimental: Compounds were screened for their ability to inhibit KDR using a standard coupled enzyme assay (Fox et al., Protein Sci., (1998) 7, 2249). Assays were carried out in a mixture of 200 mM HEPES 7.5, 10 mM MgCl2, 25 mM NaCl, 1 mM DTT and 1.5% DMSO. Final substrate concentrations in the assay were 300 μM ATP (Sigma Chemicals) and 10 μM poly E4Y (Sigma). Assays were carried out at 37° C. and 30 nM KDR. Final concentrations of the components of the coupled enzyme system were 2.5 mM phosphoenolpyruvate, 200 μM NADH, 30 μg/ML pyruvate kinase and 10 μg/ml lactate dehydrogenase.
An assay stock buffer solution was prepared containing all of the reagents listed above, with the exception of ATP and the test compound of interest. 177 μl of the stock solution was placed in a 96 well plate followed by addition of 3 μl of 2 mM DMSO stock containing the test compound (final compound concentration 30 μM). The plate was preincubated for about 10 minutes at 37° C. and the reaction initiated by addition of 20 μl of ATP (final concentration 300 μM). Rates of reaction were obtained using a Molecular Devices plate reader (Sunnyvale, Calif.) over a 5 minute read time at 37° C.

## COc1cc(Nc2ncn(-c3ccccc3)n2)cc(OC)c1OC [Compound I-42]
Aurora-2
  pKi: 6.00 to 7.00

## COc1cc(Nc2ncn(-c3ccc(C#N)cc3)n2)cc(OC)c1OC [Compound I-43]
Aurora-2
  pKi: 6.00 to 7.00

## CCOc1cccc(Nc2ncn(-c3ccccc3)n2)c1 [Compound I-45]
Aurora-2
  pKi: < 6.00
c-KIT
  pKi: > 7.30

## CC(C)Oc1cccc(Nc2ncn(-c3ccccc3)n2)c1 [Compound I-46]
Aurora-2
  pKi: < 6.00
c-KIT
  pKi: > 7.30

## OC[C@H]1CCCN(c2cc(-n3cnc(Nc4ccccc4)n3)ccn2)C1 [Compound I-65]
KDR
  pKi: 6.00 to 7.00
Aurora-2
  pKi: 6.00 to 7.00

## CC(=O)N1CCCN(c2cc(-n3cnc(Nc4ccccc4)n3)ccn2)CC1 [Compound I-66]
KDR
  pKi: 6.00 to 7.00
Aurora-2
  pKi: 6.00 to 7.00
c-KIT
  pKi: 6.30 to 7.30

## CCC(=O)N1CCCN(c2cc(-n3cnc(Nc4ccccc4)n3)ccn2)CC1 [Compound I-67]
KDR
  pKi: 6.00 to 7.00
Aurora-2
  pKi: 6.00 to 7.00

## COCC(=O)N1CCCN(c2cc(-n3cnc(Nc4ccccc4)n3)ccn2)CC1 [Compound I-71]
KDR
  pKi: 6.00 to 7.00
Aurora-2
  pKi: 6.00 to 7.00

## N#CCC(=O)N1CCCN(c2cc(-n3cnc(Nc4ccccc4)n3)ccn2)CC1 [Compound I-72]
KDR
  pKi: 6.00 to 7.00
Aurora-2
  pKi: 6.00 to 7.00
c-KIT
  pKi: 6.30 to 7.30

## c1ccc(Nc2ncn(-c3ccnc(N4CCCCCC4)c3)n2)cc1 [Compound I-73]
KDR
  pKi: > 7.00
Aurora-2
  pKi: > 7.00
c-KIT
  pKi: 6.30 to 7.30

## CC(=O)N1[C@H](C)CN(c2cc(-n3cnc(Nc4ccccc4)n3)ccn2)C[C@@H]1C [Compound I-74]
KDR
  pKi: > 7.00
Aurora-2
  pKi: > 7.00
c-KIT
  pKi: 6.30 to 7.30

## CCOC(=O)c1ccc(Nc2ncn(-c3ccnc(N4C[C@@H](C)N(C(C)=O)[C@@H](C)C4)c3)n2)cc1 [Compound I-75]
KDR
  pKi: > 7.00
Aurora-2
  pKi: > 7.00
c-KIT
  pKi: > 7.30

## CC(=O)N1[C@H](C)CN(c2cc(-n3cnc(Nc4ccc(NC(=O)N(C)C)cc4)n3)ccn2)C[C@@H]1C [Compound I-77, 3-(4-{1-[2-(4-Acetyl-3,5-dimethyl-piperazin-1-yl)-pyridin-4-yl]-1H-[1,2,4]triazol-3-ylamino}-phenyl)-1,1-dimethyl-urea]
KDR
  pKi: 6.00 to 7.00
Aurora-2
  pKi: > 7.00
c-KIT
  pKi: 6.30 to 7.30

## COC(=O)Nc1ccc(Nc2ncn(-c3ccnc(N4C[C@@H](C)N(C(C)=O)[C@@H](C)C4)c3)n2)cc1 [Compound I-78]
KDR
  pKi: > 7.00
Aurora-2
  pKi: > 7.00
c-KIT
  pKi: 6.30 to 7.30

## CC(=O)N1[C@H](C)CN(c2cc(-n3cnc(Nc4ccc(NC(=O)C(F)(F)F)cc4)n3)ccn2)C[C@@H]1C [Compound I-79]
KDR
  pKi: > 7.00
Aurora-2
  pKi: > 7.00
c-KIT
  pKi: 6.30 to 7.30

## CC(=O)N1[C@H](C)CN(c2cc(-n3cnc(Nc4ccc(N)cc4)n3)ccn2)C[C@@H]1C [Compound I-82]
KDR
  pKi: > 7.00
Aurora-2
  pKi: > 7.00
c-KIT
  pKi: 6.30 to 7.30

## CC(=O)N1[C@H](C)CN(c2cc(-n3cnc(Nc4ccc(N5CCOCC5)cc4)n3)ccn2)C[C@@H]1C [Compound I-85, 1-(2,6-Dimethyl-4-{4-[3-(4-morpholin-4-yl-phenylamino)-[1,2,4]triazol-1-yl]-pyridin-2-yl}-piperazin-1-yl)-ethanone]
KDR
  pKi: 6.00 to 7.00
Aurora-2
  pKi: > 7.00
c-KIT
  pKi: 6.30 to 7.30

## CCCOC(=O)Nc1ccc(Nc2ncn(-c3ccnc(N4C[C@@H](C)N(C(C)=O)[C@@H](C)C4)c3)n2)cc1 [Compound I-88]
KDR
  pKi: 6.00 to 7.00
Aurora-2
  pKi: > 7.00
c-KIT
  pKi: 6.30 to 7.30

## CC(=O)N1[C@H](C)CN(c2cc(-n3cnc(Nc4ccc(NC(=O)OC(C)C)cc4)n3)ccn2)C[C@@H]1C [Compound I-89]
KDR
  pKi: 6.00 to 7.00
Aurora-2
  pKi: > 7.00
c-KIT
  pKi: 6.30 to 7.30

## c1ccc(-n2cnc(Nc3ccnc(N4CCOCC4)c3)n2)cc1 [Compound I-105]
KDR
  pKi: 6.00 to 7.00
Aurora-2
  pKi: 6.00 to 7.00
c-KIT
  pKi: > 7.30
